# Experimental data reported in patent publication US7083779B2 (Council of Scientific and Industrial Research, priority 2003, dated 2006).
# Assays:
# P. falciparum = conditions: cited from earlier work
SMILES,Reversibility of effect on cultured fibroblasts (cell viability and protein quantification) (cultured fibroblasts),Cytotoxicity (cell viability) (cultured fibroblasts; 0.001 %),LC50 against P. falciparum (P. falciparum) [µg/mL]
[H]/N=C(\N/C(=N/[H])NCCCCCCNC(=N)NC(=N)Nc1ccc(Cl)cc1)Nc1ccc(Cl)cc1 [Chlorhexidine],damage the cells irreversibly,cytotoxic even at 0.001%,
CC(=O)O[C@@H]1C[C@H]2C(C)(C)C(=O)CC[C@]2(C)[C@H]2CC[C@@]3(C)[C@H](c4ccoc4)OC(=O)[C@H]4O[C@]43[C@@]21C [dihydrogedunin],,,0.72 to 1.74
CC(=O)O[C@@H]1C[C@H]2C(C)(C)C(=O)C=C[C@]2(C)[C@H]2CC[C@@]3(C)[C@H](c4ccoc4)C(=O)[C@H]4O[C@]43[C@@]21C [nimbinin],,,0.72 to 1.74
